The results in this text go back to patent publication US8551721B2, “Bioluminescent detection of cyanohydroxy benzothiazole compounds” (Promega Corporation, priority 2008, dated 2013).

Holding throughout (format): biochemical
One assay addresses T1, UGT 1A9 (Homo sapiens, UniProt O60656).
T1 construct: purchased BD Gentest; host or cells: insect cells (microsomes)
T1 sequence (O60656 26-530): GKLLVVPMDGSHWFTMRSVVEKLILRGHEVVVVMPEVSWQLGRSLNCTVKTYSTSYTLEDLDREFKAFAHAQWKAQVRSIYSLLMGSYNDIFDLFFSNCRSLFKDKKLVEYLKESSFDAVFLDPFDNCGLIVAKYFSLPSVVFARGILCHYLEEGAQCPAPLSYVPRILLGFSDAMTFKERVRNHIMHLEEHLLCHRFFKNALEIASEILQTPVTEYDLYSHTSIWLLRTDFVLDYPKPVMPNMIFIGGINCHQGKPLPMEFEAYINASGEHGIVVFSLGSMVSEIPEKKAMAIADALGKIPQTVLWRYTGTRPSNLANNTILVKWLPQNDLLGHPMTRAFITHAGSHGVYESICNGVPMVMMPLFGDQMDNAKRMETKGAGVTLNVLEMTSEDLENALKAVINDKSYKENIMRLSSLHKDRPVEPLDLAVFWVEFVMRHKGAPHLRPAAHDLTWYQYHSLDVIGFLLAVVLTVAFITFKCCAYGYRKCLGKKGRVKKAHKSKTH
Description: UGT activity: utilization of substrate by recombinant UGT 1A9 Supersomes. The note with it: 2 hour incubation at 37° C., plus vs minus UDPGA, background corrected. How it is done: (§1) The invention includes a method of determining activity of the uridine 5′-diphospho-glucuronosyltransferase (UDP-glucuronosyltransferase, or UGT) family enzymes in vitro. Briefly, UGT enzymes from overexpressed insect microsomes (Supersomes™, BD Gentest™) or animal tissue microsomes (Xenotech, BD Gentest™) were incubated with a cyanobenzothiazole substrate of the invention and the cofactor UDP-glucuronic acid (UDPGA) at 37° C. in buffer at physiological pH containing MgCl2 and alamethicin (typically, 50 mM TES, pH 7.5, 8 mM MgCl2, 4 mM UDPGA (Sigma) and 25 μg/mL alamethicin (Sigma)). Following the UGT enzyme reaction, an equal volume of P450-Glo Luciferin Detection Reagent (Promega) containing 15-30 mM D-cysteine-HCl.H2O (Sigma) was added and the plate was mixed and incubated at room temperature, typically for 20-30 minutes. […]
(§2) During this incubation, the cysteine reacts with the cyanobenzathiozole substrate to yield a D-luciferin derivative. […] Therefore, activity of the UGT enzyme can be measured by analyzing the difference (lower or no output) in relative light units (RLU) of a sample in which glucuronidation occurs compared to a sample that was run under the same conditions with no added UDPGA cofactor. […]
(§3) Reactions were assembled in a white 96-well plate. […] After the incubation was completed, the plate was read on a Veritas™ luminometer (Turner BioSystems, Inc.; Sunnyvale, Calif.). […]

In a further assay the target is T2, UGT 1A4 (Homo sapiens, UniProt P22310).
T2 construct: purchased BD Gentest; host or cells: insect cells (microsomes)
T2 sequence (P22310 29-534): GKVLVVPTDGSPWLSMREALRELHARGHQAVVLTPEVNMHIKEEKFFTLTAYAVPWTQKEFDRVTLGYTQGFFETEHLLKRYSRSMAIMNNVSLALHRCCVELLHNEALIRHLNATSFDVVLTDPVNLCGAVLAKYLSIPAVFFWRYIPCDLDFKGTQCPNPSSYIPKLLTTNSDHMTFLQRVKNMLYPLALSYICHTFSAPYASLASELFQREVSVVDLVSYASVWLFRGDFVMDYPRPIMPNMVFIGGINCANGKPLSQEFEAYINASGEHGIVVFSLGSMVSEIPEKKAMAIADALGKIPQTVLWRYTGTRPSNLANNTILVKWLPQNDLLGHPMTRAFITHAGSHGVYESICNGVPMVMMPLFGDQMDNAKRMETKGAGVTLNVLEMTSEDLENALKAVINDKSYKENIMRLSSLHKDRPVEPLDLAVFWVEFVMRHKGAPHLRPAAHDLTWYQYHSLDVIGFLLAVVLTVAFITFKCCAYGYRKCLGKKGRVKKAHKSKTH
Description: UGT activity: utilization of substrate by recombinant UGT 1A4 Supersomes. The note with it: 2 hour incubation at 37° C., plus vs minus UDPGA. How it is done:
The invention includes a method of determining activity of the uridine 5′-diphospho-glucuronosyltransferase (UDP-glucuronosyltransferase, or UGT) family enzymes in vitro. Briefly, UGT enzymes from overexpressed insect microsomes (Supersomes™, BD Gentest™) or animal tissue microsomes (Xenotech, BD Gentest™) were incubated with a cyanobenzothiazole substrate of the invention and the cofactor UDP-glucuronic acid (UDPGA) at 37° C. in buffer at physiological pH containing MgCl2 and alamethicin (typically, 50 mM TES, pH 7.5, 8 mM MgCl2, 4 mM UDPGA (Sigma) and 25 μg/mL alamethicin (Sigma)). Following the UGT enzyme reaction, an equal volume of P450-Glo Luciferin Detection Reagent (Promega) containing 15-30 mM D-cysteine-HCl.H2O (Sigma) was added and the plate was mixed and incubated at room temperature, typically for 20-30 minutes. P450-Glo Luciferin Detection Reagent can be prepared by dissolving a vial of Promega Luciferin Detection Reagent (Promega Part #V859B) with a vial of Promega P450-Glo Buffer (Promega Part #V865B).
During this incubation, the cysteine reacts with the cyanobenzathiozole substrate to yield a D-luciferin derivative. […] Therefore, activity of the UGT enzyme can be measured by analyzing the difference (lower or no output) in relative light units (RLU) of a sample in which glucuronidation occurs compared to a sample that was run under the same conditions with no added UDPGA cofactor.
In this example, a series of 12 recombinant UGTs expressed in insect microsomes (Supersomes™, BD Gentest™), as well as the control microsomes not expressing the UGT enzyme, were incubated with compound 3138, compound 3478, or compound 3165 as substrates, with or without the UDPGA co-factor. […]
as §3

The next assay addresses T3, UGT 2B7 (Homo sapiens, UniProt P16662).
T3 construct: purchased BD Gentest; host or cells: insect cells (microsomes)
T3 sequence (P16662 24-529): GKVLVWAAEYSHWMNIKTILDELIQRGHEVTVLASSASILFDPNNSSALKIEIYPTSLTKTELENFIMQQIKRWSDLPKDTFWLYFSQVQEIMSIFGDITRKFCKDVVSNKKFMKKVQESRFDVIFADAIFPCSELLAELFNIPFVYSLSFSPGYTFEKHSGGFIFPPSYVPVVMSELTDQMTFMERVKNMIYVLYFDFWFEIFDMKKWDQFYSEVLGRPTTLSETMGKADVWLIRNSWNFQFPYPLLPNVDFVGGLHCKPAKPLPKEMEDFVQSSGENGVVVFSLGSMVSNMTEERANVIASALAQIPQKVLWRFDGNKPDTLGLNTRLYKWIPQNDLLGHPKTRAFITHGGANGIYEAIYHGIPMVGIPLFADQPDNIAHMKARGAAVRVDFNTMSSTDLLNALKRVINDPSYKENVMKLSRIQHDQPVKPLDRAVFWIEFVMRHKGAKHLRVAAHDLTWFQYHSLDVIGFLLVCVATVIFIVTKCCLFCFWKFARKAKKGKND
Description: UGT activity: utilization of substrate by recombinant UGT 2B7 Supersomes. Conditions: 2 hour incubation at 37° C., plus vs minus UDPGA, background corrected. How it is done:
as §1, §2, §3

Where only a bound is given, the exact number is not on record here.

For the molecule `Cc1cc(O)cc2sc(C3=NC(C(=O)O)CS3)nc12` (stereo not drawn) [compound 3478], the “% utilization by UGT 1A9” value on UGT 1A9 is given as at most 15%. In addition, the “utilization by UGT 1A4 (in words)” value at UGT 1A4 is reported as “did not utilize either compound 3138 or 3478 to an appreciable extent”. For the same molecule, the “% utilization by UGT 2B7” value at UGT 2B7 is at most 15%.
As to `Cc1cc(O)cc2sc(C#N)nc12` [compound 3138], at UGT 1A9, the “% utilization by UGT 1A9” value is reported as “over 50%”. Further, the “utilization by UGT 1A4 (in words)” value at UGT 1A4 is reported as “did not utilize either compound 3138 or 3478 to an appreciable extent”. The “% utilization by UGT 2B7” value on UGT 2B7 is given as “over 50%”.
